# Reference: patent US9856263B2, “Heteroaromatic compounds and their use as dopamine D1 ligands” (PFIZER INC., priority 2014, dated 2018)
# Target: Human D1 Receptor (Homo sapiens (Human), UniProt P21728)
# Assay: Human D1 receptor binding assay ([3H]-SCH23390 competition binding)
# Conditions: over-expressing LTK human cell lines; 0.5 nM [3H]-SCH23390; 30 min at 37° C.; footnote a = single determination, b = geometric mean of ≧5 determinations
# Procedure: D1 binding assays were performed using over-expressing LTK human cell lines. […] These ligand and tissue concentrations were used in time course studies to determine linearity and equilibrium conditions for binding. […] The pellet was resuspended in assay buffer [50 mM Tris (pH 7.4@ RT) containing 4 mM MgSO4 and 0.5 mM EDTA]. […] Non-specific binding was determined by radioligand binding in the presence of a saturating concentration of (+)-Butaclamol (10 μM), a D1 antagonist After a 30 minute incubation period at 37° C., assay samples were rapidly filtered through Unifilter-96 GF/B PEI-coated filter plates and rinsed with 50 mM Tris buffer (pH 7.4 at 4° C.). […] Ki values were calculated according to the Cheng-Prusoff equation: […]
# Sequence of Human D1 Receptor (P21728 whole entry): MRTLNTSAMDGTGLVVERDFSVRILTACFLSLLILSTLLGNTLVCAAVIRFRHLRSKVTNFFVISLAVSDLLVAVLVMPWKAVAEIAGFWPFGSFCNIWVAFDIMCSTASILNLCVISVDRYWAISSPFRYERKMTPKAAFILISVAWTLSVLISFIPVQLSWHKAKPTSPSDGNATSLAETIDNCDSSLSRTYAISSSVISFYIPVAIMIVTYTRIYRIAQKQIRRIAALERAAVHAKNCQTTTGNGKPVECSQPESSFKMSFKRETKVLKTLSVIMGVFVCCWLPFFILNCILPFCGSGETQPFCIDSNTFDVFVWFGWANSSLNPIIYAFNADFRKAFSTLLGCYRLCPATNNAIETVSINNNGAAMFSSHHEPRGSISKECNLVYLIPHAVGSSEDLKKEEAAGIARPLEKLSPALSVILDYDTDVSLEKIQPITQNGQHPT
row,SMILES,Ki [nM]
1,"Cc1ncnc(C)c1-c1ccc(Oc2nccn3cccc23)cc1C#N [Example 10, 2-(4,6-dimethylpyrimidin-5-yl)-5-(pyrrolo[1,2-a]pyrazin-1-yloxy)benzonitrile]",63.9

# Same assay, conditions: read-out: Human D1 Receptor Binding, Ki (nM); Geometric mean of 2-4 determinations (unless otherwise indicated); over-expressing LTK human cell lines; 0.5 nM [3H]-SCH23390; 30 min at 37° C.; footnote a = single determination, b = geometric mean of ≧5 determinations
row,SMILES,Ki [nM]
1,"Cc1ncnc(C)c1-c1ccc(Oc2nccn3nccc23)cc1 [Example 7, 4-[4-(4,6-dimethylpyrimidin-5-yl)phenoxy]pyrazolo[1,5-a]pyrazine]",514
2,"Cc1cc(Oc2nccn3nccc23)ccc1-c1c(C)ncc2nccn12 [Example 8, 6-methyl-5-[2-methyl-4-(pyrazolo[1,5-a]pyrazin-4-yloxy)phenyl](8-^2H)imidazo[1,2-a]pyrazine]",107
3,"Cc1ncnc(C)c1-c1ccc(Oc2nccn3nccc23)cc1C#N [Example 11, 2-(4,6-dimethylpyrimidin-5-yl)-5-(pyrazolo[1,5-a]pyrazin-4-yloxy)benzonitrile]",1820
4,"Cc1n[nH]c(=O)c(C)c1-c1ccc(Oc2nccn3cccc23)cc1 [Example 14, 4,6-dimethyl-5-[4-(pyrrolo[1,2-a]pyrazin-1-yloxy)phenyl]pyridazin-3(2H)-one]",18.8
5,"Cc1c(-c2ccc(Oc3nccn4cccc34)cc2)n(C)c(=O)[nH]c1=O [Example 15, 1,5-dimethyl-6-[4-(pyrrolo[1,2-a]pyrazin-1-yloxy)phenyl]pyrimidine-2,4(1H,3H)-dione]",7.3
6,"Cc1ncnc(C)c1-c1ccc(Oc2ncnn3cccc23)cc1F [Example 16, 4-[4-(4,6-dimethylpyrimidin-5-yl)-3-fluorophenoxy]pyrrolo[2,1-f][1,2,4]triazine]",58.2
7,"Cc1ncnc(C)c1-c1ccc(Oc2nccn3nccc23)cc1F [Example 17, 4-[4-(4,6-dimethylpyrimidin-5-yl)-3-fluorophenoxy]pyrazolo[1,5-a]pyrazine]",183
8,"Cc1cc(Oc2ncnn3cccc23)ccc1-c1c(C)nc2ncccn12 [Example 18, 4-[3-methyl-4-(2-methylimidazo[1,2-a]pyrimidin-3-yl)phenoxy]pyrrolo[2,1-f][1,2,4]triazine]",1150
9,"COc1cc(Oc2ncnn3cccc23)ccc1-c1c(C)ncnc1C [Example 19, 4-[4-(4,6-dimethylpyrimidin-5-yl)-3-methoxyphenoxy]pyrrolo[2,1-f][1,2,4]triazine]",672
10,"COc1cc(Oc2nccn3nccc23)ccc1-c1c(C)ncnc1C [Example 23, 4-[4-(4,6-dimethylpyrimidin-5-yl)-3-methoxyphenoxy]pyrazolo[1,5-a]pyrazine]",894
11,"COc1cc(Oc2ncnn3cccc23)ccc1-c1cccnc1C [Example 24, 4-[3-methoxy-4-(2-methylpyridin-3-yl)phenoxy]pyrrolo[2,1-f][1,2,4]triazine]",83.9
12,"Cc1ncnc(C)c1-c1cc(F)c(Oc2nccn3cccc23)cc1F [Example 26, 1-[4-(4,6-dimethyipyrimidin-5-yl)-2,5-difluorophenoxy]pyrrolo[1,2-a]pyrazine]",86.1
13,"Cc1ncnc(C)c1-c1cc(F)c(Oc2ncnn3cccc23)cc1F [Example 29, 4-[4-(4,6-dimethylpyrimidin-5-yl)-2,5-difluorophenoxy]pyrrolo[2,1-f][1,2,4]triazine]",85.7
14,"Cc1ncnc(C)c1-c1ccc(Oc2nccn3cccc23)c(F)c1C [Example 31, 1-[4-(4,6-dimethylpyrimidin-5-yl)-2-fluoro-3-methylphenoxy]pyrrolo[1,2-a]pyrazine]",179
15,"Cc1ncnc(C)c1-c1ccc(Oc2ncnn3cccc23)c(F)c1C [Example 32, 4-[4-(4,6-dimethylpyrimidin-5-yl)-2-fluoro-3-methylphenoxy]pyrrolo[2,1-f][1,2,4]triazine]",116
16,"Cc1ncnc(C)c1-c1ccc(Oc2ncnn3cccc23)c(F)c1 [Example 33, 4-[4-(4,6-dimethylpyrimidin-5-yl)-2-fluorophenoxy]pyrrolo[2,1-f][1,2,4]triazine]",252
17,"Cc1ncnc(C)c1-c1ccc(Oc2nccn3cccc23)c(F)c1 [Example 34, 1-[4-(4,6-dimethylpryimidin-5-yl)-2-fluorophenoxy]pyrrolo[1,2-a]pyrazine]",49.4
18,"Cc1ncnc(C)c1-c1ccc(Oc2ncnn3cccc23)cc1Cl [Example 36, 4-[3-chloro-4-(4,6-dimethylpyrimidin-5-yl)phenoxy]pyrrolo[2,1-f][1,2,4]triazine]",48.7
19,"Cc1ncnc(C)c1-c1ccc(Oc2ncnn3cccc23)cc1C#N [Example 38, 2-(4,6-dimethylpyrimidin-5-yl)-5-(pyrrolo[2,1-f][1,2,4]triazin-4-yloxy)benzonitrile]",141
20,"Cc1cc(Oc2ncnn3cccc23)ccc1-c1c(C)ncc(=O)n1C [Example 39, 1,5-dimethyl-6-[2-methyl-4-(pyrrolo[2,1-f][1,2,4]triazin-4-yloxy)phenyl]pyrazin-2(1H)-one]",31.2
21,"Cc1cc(Oc2ccnc3ccnn23)ccc1-c1c(C)ncnc1C [Example 40, 7-[4-(4,6-dimethylpyrimidin-5-yl)-3-methylphenoxy]pyrazolo[1,5-a]pyrimidine]",> 6400

# The next lines start with the values.
row,Ki [nM],SMILES
1,96.3,"Cc1cc(Oc2nccn3cccc23)ccc1-c1c(C)cnnc1C (single isomer, unassigned) [Example 12, (−)-1-[4-(3,5-dimethylpyridazin-4-yl)-3-methylphenoxy]pyrrolo[1,2-a]pyrazine]"
2,13.1,"Cc1cc(Oc2nccn3cccc23)ccc1-c1c(C)cnnc1C (single isomer, unassigned) [Example 13, (+)-1-[4-(3,5-dimethylpyridazin-4-yl)-3-methylphenoxy]pyrrolo[1,2-a]pyrazine]"
3,22.1,"Cc1cc(Oc2nccn3cccc23)ccc1-c1c(C)ncnc1C [Example 4, 1-[4-(4,6-dimethylpyrimidin-5-yl)-3-methylphenoxy]pyrrolo[1,2-a]pyrazine]"
4,56.4,"Cc1cc(Oc2ncnn3cccc23)ccc1-c1c(C)ncnc1C [Example 5, 4-[4-(4,6-dimethylpyrimidin-5-yl)-3-methylphenoxy]pyrrolo[2,1-f][1,2,4]triazine]"
5,61.3,"Cc1cc(Oc2nccn3nccc23)ccc1-c1c(C)ncnc1C [Example 6, 4-[4-(4,6-dimethylpyrimidin-5-yl)-3-methylphenoxy]pyrazolo[1,5-a]pyrazine]"
6,35.8,"Cc1cc(Oc2ncnn3cccc23)ccc1-c1c(C)cnnc1C [Example 9, 4-[4-(3,5-dimethylpyridazin-4-yl)-3-methylphenoxy]pyrrolo[2,1-f][1,2,4]triazine]"
7,59.3,"Cc1ncnc(C)c1-c1ccc(Oc2nccn3cccc23)cc1F [Example 20, 1-[4-(4,6-dimethylpyrimidin-5-yl)-3-fluorophenoxy]pyrrolo[1,2-a]pyrazine]"
8,102,"Cc1ncnc(C)c1-c1ccc(Oc2nccn3cccc23)cc1 [Example 21, 1-[4-(4,6-dimethylpyrimidin-5-yl)phenoxy]pyrrolo[1,2-a]pyrazine]"
9,105,"Cc1cnnc(C)c1-c1ccc(Oc2ncnn3cccc23)cc1F [Example 22, 4-[4-(3,5-dimethylpyridazin-4-yl)-3-fluorophenoxy]pyrrolo[2,1-f][1,2,4]triazine]"
10,56.4,"COc1cc(Oc2nccn3cccc23)ccc1-c1cccnc1C [Example 25, 1-[3-methoxy-4-(2-methylpyridin-3-yl)phenoxy]pyrrolo[1,2-a]pyrazine]"
11,28.1,"COc1cc(Oc2nccn3cccc23)ccc1-c1c(C)cnnc1C [Example 27, 1-[4-(3,5-dimethylpyridazin-4-yl)-3-methoxyphenoxy]pyrrolo[1,2-a]pyrazine]"
12,198,"Cc1cc(Oc2nccn3cccc23)ccc1-c1c(C)nnc2nccn12 [Example 28, 3-methyl-4-[2-methyl-4-(pyrrolo[1,2-a]pyrazin-1-yloxy)phenyl]imidazo[2,1-c][1,2,4]triazine]"
13,59,"Cc1ncnc(C#N)c1-c1ccc(Oc2nccn3cccc23)cc1F [Example 30, 5-[2-fluoro-4-(pyrrolo[1,2-a]pyrazin-1-yloxy)phenyl]-6-methylpyrimidine-4-carbonitrile]"
14,31.5,"Cc1cc(Oc2nccn3cccc23)c(F)cc1-c1c(C)ncnc1C [Example 35, 1-[4-(4,6-dimethylpyrimidin-5-yl)-2-fluoro-5-methylphenoxy]pyrrolo[1,2-a]pyrazine]"
15,12.7,"Cc1ncnc(C)c1-c1ccc(Oc2nccn3cccc23)cc1Cl [Example 37, 1-[3-chloro-4-(4,6-dimethylpyrimidin-5-yl)phenoxy]pyrrolo[1,2-a]pyrazine]"
16,34.7,"COc1cc(Oc2nccn3cccc23)ccc1-c1c(C)ncnc1C [Example 41, 1-[4-(4,6-dimethylpyrimidin-5-yl)-3-methoxyphenoxy]pyrrolo[1,2-a]pyrazine]"
